Reference: US11583525B2, “Geranylgeranyltransferase I inhibitor for treatment of a PTEN defective cancer” (H. LEE MOFFITT CANCER CENTER AND RESEARCH INSTITUTE, INC., priority 2017, dated 2023)

Legend:
Type in all cases: cell-based, human
IP3R3 [1] = test: IP3R3 degradation in serum-starved and exponentially growing NHFs treated with ATP; conditions: NHFs cultured in presence or absence of serum
FBXL2 and IP3R3 = test: FBXL2-IP3R3 co-immunoprecipitation after ATP stimulation; conditions: ATP for 30 min; particularly upon proteasome inhibition
Experimental: FIGS. 8A, 8B, 8C, 8D, 8E, 8F, 8G, 8H, 8I, and 8J show Mapping of the FBXL2-binding domain in IP3R3, and evidence that the N-terminal suppressor domain inhibits the IP3R3-FBXL2 interaction. […] Binding of IP3R3 to FBXL2 is indicated with the symbol (+). […] Whole-cell lysates (WCL) were immunoprecipitated (IP) with anti-Flag resin and proteins were immunoblotted as indicated. This experiment was performed twice. […] Sixteen hours after transfection, cells were incubated with MG132 for 3 h before stimulation with ATP for 30 min Whole-cell lysates were immunoprecipitated (IP) with an anti-HA resin and proteins were immunoblotted as indicated. This experiment was performed twice. […] Cells were subsequently treated with or without ATP for 30 min Whole-cell lysates were immunoprecipitated (IP) with an anti-Flag resin and proteins were immunoblotted as indicated. […] P values were calculated by one-way ANOVA and multiple-comparisons test. Error bars indicate s.e.m. […] It has been shown that removal of the N-terminal suppressor domain (amino acids 1-226) increases the binding of IP3 to the IP3 binding core domain (amino acids 227-579), and IP3 binding evokes conformational changes that open the suppressor domain29-32. These conformational changes may allow FBXL2 to access the degron of IP3R3 (that is, the amino acid region required for binding to FBXL2). […]

IP3R3 [2] = test: Serum-mediated degradation of IP3R3 in serum-starved, serum re-stimulated NHFs (immunoblotting); conditions: NHFs serum-starved 72 h, re-stimulated with serum; 10 μM MG132, 10 μM Eer1
Experimental: 24 h post-transfection, cells were treated with MG132 for 3 h before harvesting for immunoprecipitation and immunoblotting as indicated. WCL, whole-cell lysate from untransfected cells. […] After harvesting, cells were lysed, and cell membranes (CM) were isolated and immunoprecipitated with either a normal mouse IgG or an anti-Flag antibody. Subsequently, immunoprecipitates were analysed by immunoblotting as indicated. The results of these experiments (n=2) indicate that FBXL2 is incorporated into a complete SCF ligase that binds its substrate(s) at cellular membranes. […] After harvesting, cells were lysed and cytoplasmic (CYTO) and cell membrane (CM) fractions were isolated and analysed by immunoblotting as indicated. Actin and calnexin are used as markers for cytoplasmic and cell membrane fractions, respectively. This experiment was performed twice. […] 24 h post-transfection, where indicated, cells were treated with MG132 for 3 h before harvesting for immunoprecipitation and immunoblotting. Ned. CUL1, neddylated CUL1. […] The experiment was performed in the presence or absence of MG132 as indicated. Whole-cell lysates were immunoblotted as indicated. The asterisk indicates a non-specific band. This experiment was performed twice. […] P values were calculated by unpaired t-test. Error bars indicate s.e.m. […] Error bars indicate s.e.m. The values represent the ratios between FBXL2 and GAPDH mRNAs. […] Cells were subsequently stimulated with medium containing serum and harvested at the indicated times for immunoblotting. […] Error bars indicate s.e.m. […] Cells were subsequently stimulated with medium containing serum and harvested at the indicated time points for immunoblotting. […] Error bars indicate s.e.m. […] Exon 2 and exon 3 refer to the human FBXL2 gene in NC_000003.12 (GRCh38.p7 (Gene Bank ID: 3129728)). […]
FIGS. 6A, 6B, 6C, 6D, 6E, 6F, 6G, and 6H that the degradation of IP3R3 is dependent on FBXL2 localization to cell membranes and on the segregase activity of p97. […] Samples were analysed by immunoblotting with the indicated antibodies. […]

NHFs = test: H2O2-induced apoptosis in NHFs transfected with FBXL2 siRNA (automated nuclei count); conditions: pre-treated for 30 min with cyclosporin A (1 μM), H2O2 16 h
Experimental: FIGS. 1A, 1B, 1C, 1D, 1E, 1F, 1G, and 1H show FBXL2-mediated degradation of IP3R3 controls Ca2+ flux and sensitivity to apoptosis. […] Left, two representative traces. Right, quantification of three independent experiments. P values were calculated by one-way ANOVA and multiple-comparisons test. Error bars indicate s.e.m. 1b, 1c, and 1d, Apoptosis evaluated after treatment with H2O2 using automated nuclei count analysis of twenty randomly chosen fields following a 16 h treatment (1b), immunoblot detection of cleaved PARP and cleaved caspase-3 following a 3 h treatment (1c), and automated analysis of cells with released cytochrome c (Cyt c) from 80 randomly chosen fields following a 3 h treatment (1d). […] P values were calculated by one-way ANOVA and multiple-comparisons test. […] Left, representative traces show concentrations of cytosolic Ca2+ measured with aequorin. Right, quantification of three independent experiments. P values were calculated by one-way ANOVA and multiple-comparisons test. […] Apoptosis shown in 1h was evaluated as in 1b, except that H2O2 treatment was for 5 h. Analysis of cytochrome c release shown in 1i was evaluated as in 1d. P values were calculated by unpaired t-test. […]
Detection of cell death in cell systems. […] The mean fluorescence intensities and standard deviations of […] cytochrome c were evaluated in comparison to corresponding controls. […]

Nc1ncnc2c1ncn2[C@@H]1O[C@H](COP(=O)(O)OP(=O)(O)OP(=O)(O)O)[C@@H](O)[C@H]1O [ATP]
degradation of IP3R3 (IP3R3 [1]): promoted the degradation of IP3R3 in cells cultured in the presence, but not in the absence, of serum | binding between FBXL2 and IP3R3 (FBXL2 and IP3R3): increased the binding between FBXL2 and IP3R3

CC1(C)C(N(O)C(=O)Nc2ccc(Cl)cc2)N(c2ccc(Cl)cc2)C(=O)N1CC(=O)N/N=C/C=C/c1ccc([N+](=O)[O-])o1 (centres unmarked) [Eer1, Eeyarestatin 1]
IP3R3 levels / degradation after serum re-stimulation (IP3R3 [2]): blocked IP3R3 degradation

CC(=O)N[C@@H](CSC(=O)[C@]1([C@@H](O)C(C)C)NC(=O)[C@H](C)[C@@H]1O)C(=O)O [lactacystin]
IP3R3 levels / degradation after serum re-stimulation (IP3R3 [2]): much less

cyclosporin-A
sensitization to H2O2 by FBXL2 silencing (NHFs): abolished the sensitization to H2O2 by FBXL2 silencing
